Measurements reported in patent publication US20240050403A1, “THERAPY OF POST-OPERATIVE EMESIS WITH AMISULPRIDE” (Acacia Pharma Limited, priority 2016, published 2024).
Values joined by “and” are separate entries in the source; they are usually repeats but may differ in a detail not shown here. Identical values can stand only once.

Legend:
Assay type in all cases: in vivo, human
[1] = system: adult, surgical patients at high risk of PONV; assay: Study 1: Phase III study of amisulpride as combination prophylaxis against PONV in high-risk patients
Experimental: A randomised, double-blind, placebo-controlled Phase Ill study of amisulpride as combination prophylaxis against post-operative nausea and vomiting in high-risk patients was conducted. The primary aim of the study was to assess the efficacy of amisulpride at 5 mg in the prevention of post-operative nausea and vomiting (PONV) in adult, surgical patients at high risk of PONV. The amisulpride was administered in combination with a standard anti-emetic.
The subjects of the study were 1204 randomised adult patients ([…]) at high risk of PONV who were undergoing elective ambulatory (day-case) or in-patient surgery under general inhalational anaesthesia for an expected duration of at least one hour from induction of anaesthesia to extubation. Of the 1204 randomised patients, 1147 were dosed and eligible.
High risk of PONV was defined as having at least three of the following risk factors: • Past history of PONV and/or motion sickness • Habitual non-smoking status • Female • Expected use of post-operative opioid analgesia
5 mg amisulpride was administered as a single, slow, intravenous (IV) push over one minute at the time of induction of anaesthesia; given in combination with a standard anti-emetic. Examples of standard anti-emetics used were ondansetron, granisetron and dexamethasone.
The two arms of the study were as follows: • Arm 1: amisulpride IV at 5 mg in combination with a standard anti-emetic which is not a dopamine D2-antagonist (e.g. ondansetron IV at 4 mg, granisetron IV at 1 mg, or dexamethasone IV at 4 mg); • Arm 2 (control): amisulpride IV placebo in combination with a standard anti-emetic, as defined above • The primary efficacy variable was the absence or presence of PONV during the 24-hour post-operative period, where PONV was defined as the occurrence of one or more emetic episodes (vomiting and/or retching) or the receipt of one or more doses of rescue anti-emetic medication. Absence of PONV by this definition was termed “Complete Response” (CR). A number of secondary variables were evaluated including the occurrence of emesis (vomiting and/or retching).
A comparison of the incidence of CR in the 0-24-hour period after surgery between the amisulpride group and the placebo group using Pearson's x2 test with Yates's continuity correction at a one-sided significance level of 2.5%. The primary efficacy analysis population was the modified intent-to-treat (mITT) population.
Secondary efficacy variables assessed by incidence (e.g., emesis) were compared between the groups using Pearson's x2 test.

adult surgical patients [2] = assay: Phase II clinical trial, multi-centre, double-blind, randomised, placebo-controlled, PONV incidence
Experimental: In a multi-centre, double-blind, randomised, placebo-controlled Phase II clinical trial in adult surgical patients (conducted by the applicant), administration of amisulpride at 5 mg was associated with a PONV incidence of 40%, compared to 69% with placebo (p<0.01).

adult surgical patients [3] = assay: Two Phase III clinical trials, multi-centre, double-blind, randomised, placebo-controlled, PONV incidence
Experimental: In two multi-centre, double-blind, randomised, placebo-controlled Phase III clinical trials involving 626 evaluable, adult surgical patients (again conducted by the applicant), administration of amisulpride at 5 mg was associated with a PONV incidence of 48%, compared to 59% with placebo (p<0.01).

CCN1CCCC1CNC(=O)c1cc(S(=O)(=O)CC)c(N)cc1OC (racemic) [Amisulpride, amisulpride]
Calculated RRR (relative risk reduction) of post-operative emesis ([1]; 5 mg IV plus a standard anti-emetic versus placebo plus standard anti-emetic): 30.94%
Calculated RRR (relative risk reduction) of PONV ([1]; 5 mg IV plus a standard anti-emetic versus placebo plus standard anti-emetic, 24 hour period): 20.8% and 20.76%
Calculated RRR (relative risk reduction) of post-operative emesis ([1]; 5 mg IV plus a standard anti-emetic versus placebo plus standard anti-emetic, listed as amisulpride): 31%
Difference in PONV rate (improvement in CR rate) versus placebo plus standard anti-emetic ([1]; 5 mg IV plus a standard anti-emetic, 24 hour period, mITT, p<0.001): 11.08%
Number of patients with PONV ([1]; 5 mg IV plus a standard anti-emetic, 24 hour period, of 572 patients): 242
Number of patients with CR (complete response) ([1]; 5 mg IV plus a standard anti-emetic, 24 hour period, of 572 patients (mITT)): 330
% patients with PONV ([1]; 5 mg IV plus a standard anti-emetic, 24 hour period, placebo plus standard anti-emetic 53.39): 42.31%
Number of patients with post-operative emesis (vomiting and/or retching) ([1]; 5 mg IV plus a standard anti-emetic, of 572 patients): 79
Difference in post-operative emesis rate versus placebo plus standard anti-emetic ([1]; 5 mg IV plus a standard anti-emetic, p=0.003): 6.19%
% patients with post-operative emesis (vomiting and/or retching) ([1]; 5 mg IV plus a standard anti-emetic, placebo plus standard anti-emetic 20.00): 13.81%
PONV incidence (adult surgical patients [2]; amisulpride at 5 mg, placebo 69% (p<0.01)): 40%
adverse events, laboratory or ECG abnormalities versus placebo (adult surgical patients [2]; amisulpride versus placebo): no difference in the nature, incidence or severity of adverse events, or of laboratory or ECG abnormalities
PONV incidence (adult surgical patients [3]; amisulpride at 5 mg, 626 evaluable patients, placebo 59% (p<0.01)): 48%
safety profile versus placebo (adult surgical patients [3]; amisulpride versus placebo): no significant difference between the safety profiles
transient increases in serum prolactin levels (adult surgical patients [3]; amisulpride versus placebo): more common with amisulpride
